In patent publication US20080293818A1, “Regulator of Physiological Function of Ghrelin and Use Thereof” (priority 2004, published 2008):
Marks after values point to notes of the source that are not given here.

Legend:
plasma ghrelin peptides = test: Molecular forms of circulating (plasma) ghrelin after glyceryl triheptanoate ingestion; assay type: in vivo, mouse; details: fed 4 days, HPLC, C-RIA
Procedure: Plasma samples were prepared as previously described [D2]. Whole blood samples were immediately transferred to chilled polypropylene tubes containing EDTA-2 Na (1 mg/ml) and aprotinin (1,000 kallikrein inactivator units/ml) and centrifuged at 4° C. Immediately after separation of the plasma, hydrogen chloride was added to the sample at final concentration of 0.1 N and then diluted with an equal volume of physiological saline. The sample was loaded onto a Sep-Pak C18 cartridge (Waters, Milford, Mass.) pre-equilibrated with 0.1% trifluoroacetic acid (TFA) and 0.9% NaCl. The cartridge was washed with 0.9% NaCl and 5% acetonitrile (CH3CN)/0.1% TFA, and then eluted with 60% CH3CN/0.1% TFA. The eluate was then lyophilized and residual materials were redissolved in 1 M acetic acid (AcOH) and adsorbed onto a SP-Sephadex C-25 column (H^+-form, Pharmacia, Uppsala, Sweden) pre-equilibrated in 1 M AcOH. Successive elution with 1 M AcOH, 2 M pyridine, and 2 M pyridine-AcOH (pH 5.0) provided three fractions: SP-I, SP-II and SP-III. […] Ghrelin peptide content in each fraction was measured by ghrelin C-RIA as described above.
Plasma samples collected from control mice fed standard chow (A) and glyceryl triheptanoate-treated mice (B) were fractionated by HPLC and measured for ghrelin immunoreactivity by C-RIA. […]

[1] = test system: n-heptanoyl ghrelin in the stomach; test: Molecular forms of stomach ghrelin after glyceryl triheptanoate ingestion (HPLC, C-RIA and N-RIA); assay type: in vivo, mouse
Procedure: (§1) Male C57BL/6J mice weighing 20-25 g (10-12 week old) were maintained under controlled temperature (21-23° C.) and light conditions (light on 0700-1900) with ad libitum access to food and water. Medium-chain fatty acids (MCFAs), i.e., n-hexanoic, n-octanoic, and n-lauric acids (Sigma-Aldrich Japan Co., Ltd., Tokyo), were dissolved in water at 5 mg/ml. n-Palmitic acid, a common long-chain fatty acid (LCFA) (Sigma-Aldrich Japan Co., Ltd., Tokyo), was mixed into standard laboratory chow (CLEA Rodent Diet CE-2, CLEA Japan, Osaka) at a concentration of 1% (w/w), to equilibrate the total intake amount of this lipid to the other medium-chain fatty acids contained in the food. Medium- and long-chain triglycerides (MCTs and LCTs), i.e., glyceryl trihexanoate, trioctanoate, tridecanoate and tripalmitates (Wako Pure Chemical, Osaka, Japan), were mixed with standard laboratory chow at a concentration of 5% (w/w). Whole stomach tissues from treated mice were collected at the indicated times (0-14 days) after ingesting the free fatty acid- or triacylglyceride-containing food. Fresh tissue samples from these mice were diced and boiled for 5 minutes in a 10-fold volume of water. The tissue-containing solution was then adjusted to 1M acetic acid after cooling and then homogenized with a Polytron mixer. The supernatant, obtained after centrifugation at 15,000 rpm for 15 minutes, was then lyophilized. The lyophilized material was dissolved in RIA buffer and subjected to ghrelin C- and N-RIA. To elucidate the forms of ghrelin peptides modified by different acyl groups, extracted stomach peptides were collected using a Sep-Pak Plus C18 cartridge (Waters, Milford, Mass.) and subjected to C18 RP-HPLC (Symmetry 300, 3.9×150 mm, Waters) with a linear gradient from 10 to 60% CH3CN/0.1% TFA at a flow rate of 1.0 ml/minute for 40 minutes. Five hundred micro-litter fractions were collected. Ghrelin peptide content in each fraction was measured by ghrelin C- and N-RIA as described above. Degradation of ghrelin was not observed during the extraction.
Male C57BL/6J mice weighing 20-25 g (10-12 week old) were maintained under controlled temperature (21-23° C.) and light conditions (light on 0700-1900) with ad libitum access to food and water. Glyceryl triheptanoate (Fluka Chemie GmbH, Buchs, Switzerland) was mixed with standard laboratory chow at a concentration of 5% (w/w). Four days after mice were fed glyceryl triheptanoate-containing food, stomachs (total 1,000 mg) were recovered from mice (n=7). The total consumption of glyceryl triheptanoate-containing food was approximately 13.5 g/mouse, amounting to 675 mg total glyceryl triheptanoate ingested by each mouse. Stomachs were minced and boiled for 5 minutes in 5× volumes of water to inactivate intrinsic proteases. […]

[2] = test system: des-acyl and acyl-modified ghrelin peptides in the stomach; test: Molecular forms of stomach ghrelin peptide after ingestion (HPLC fractionation, C-RIA); assay type: in vivo, mouse
Procedure: as §1
To clarify what molecular forms of ghrelin peptide are present after the ingestion of triacylglycerol (triacylglycerin), peptide extracts from stomachs of mouse fed chow containing glyceryl trihexanoate (C6:0-MCT), glyceryl trioctanoate (C8:0-MCT), glyceryl tridecanoate (C10:0-MCT), and standard laboratory chow (Control) were fractionated by HPLC, and measured for ghrelin immunoreactivity by C-RIA. […] Based on the observed retention times of synthetic acyl-modified ghrelin peptides, peaks a, d, h, and k corresponded to des-acyl ghrelin, peaks b, f, i, and 1 corresponded to n-octanoyl (C8:0) ghrelin, and peaks c, g, j, and m corresponded to n-decenoyl (10:1) ghrelin.
Male C57BL/6J mice were fed chow mixed with 5% (w/w) glyceryl trihexanoate (C6:0-MCT), glyceryl trioctanoate (C8:0-MCT), or glyceryl tri-decanoate (C10:0-MCT) for 14 days. The concentrations of des-acyl ghrelin, n-hexanoyl ghrelin (C6:0-ghrelin), n-octanoyl ghrelin (C8:0-ghrelin), n-decenoyl ghrelin (C10:1-ghrelin), and n-decanoyl ghrelin (C10:0-ghrelin) from stomach samples (from 0.2 mg wet weight) were measured by ghrelin C-RIA after HPLC fractionation.

ghrelin mRNA = test: Northern blot of stomach ghrelin mRNA after glyceryl trioctanoate ingestion; assay type: in vivo, mouse; details: after 4 days of ingestion
Text: Total RNAs were extracted from the stomachs of male C57BL/6J mice (12 week old) by acid guanidium thiocyanate-phenol chloroform extraction [D24] using TRIzol reagent (Invitrogen, Carlsbad Calif., USA). Two μg of total RNA was electrophoresed through a 1% agarose gel containing formaldehyde, and then transferred to a Zeta-Probe blotting membrane (Bio-Rad Laboratories, Hercules, Calif.). Membranes were hybridized with a ^32P-labeled rat ghrelin cDNA probe in hybridization buffer containing 50% formamide, 5×SSPE, 5×Denhardt's solution, 1% sodium dodecyl sulfate (SDS), and 100 μg/ml denatured salmon sperm. After an overnight hybridization at 37° C., membranes were washed and exposed to BioMax-MS film (Eastman Kodak, Rochester, N.Y.) for 12 hours at −80° C. Ghrelin mRNA levels were quantified using a Bioimaging analyzer BAS 2000 (Fujix, Tokyo, Japan).
To examine if the ingestion of MCTs affects the expression of ghrelin mRNA, mouse stomach RNA was quantitated by Northern blot analysis after 4 days of glyceryl trioctanoate ingestion.
Each lane contained 2 μg of total RNA. The lower panel indicates 28S and 18S ribosomal RNAs internal controls.

[3] = test system: acyl-modified and total ghrelin in the stomach; test: Time course of acyl-modified ghrelin production after glyceryl trioctanoate ingestion; assay type: in vivo, mouse
Procedure: To examine time-dependent changes in the production of n-octanoyl ghrelin after the ingestion of a glyceryl trioctanoate, mice were fed with glyceryl trioctanoate-containing chow (5%, w/w) after a 12-hour fasting period. The concentrations of acyl-modified and total ghrelins in the stomach were measured at the indicated times.
A represents acyl-modified ghrelin content measured by ghrelin N-RIA. B represents total ghrelin content measured by ghrelin C-RIA. After 12-hour fasting, glyceryl trioctanoate (5% w/w)-containing chow was given to mice beginning at the time (0 hour) indicated by the arrow. Stomach samples were isolated from control mice fed standard laboratory chow (closed circles) and mice fed glyceryl trioctanoate (open circles) at the indicated times. Each point represents mean ±S.D. (n=8). Asterisks indicate statistical significance. *, p<0.05; **, p<0.01 and ***, p<0.001 vs. control.

[4] = test system: acyl-modified and total ghrelin in the stomach; test: Stomach ghrelin content after medium- to long-chain triacylglycerol ingestion (N-RIA / C-RIA); assay type: in vivo, mouse; details: mice, 5% (w/w) in chow, two weeks, N-RIA
Procedure: (§2) RIAs specific for ghrelin were performed as previously described [D2]. Two polyclonal antibodies were raised in rabbits against the N-terminal (Gly^1-Lys^11 with O-n-octanoylation at Ser^3) and C-terminal (Gln^13-Arg^28) fragments of rat ghrelin. RIA incubation mixtures were composed of 100 μl of either standard ghrelin or an unknown sample, with 200 μl of antiserum diluted in RIA buffer (50 mM sodium phosphate buffer (pH 7.4), 0.5% BSA, 0.5% Triton-X100, 80 mM sodium chloride (NaCl), 25 mM disodium ethylenediamine-tetraacetate (EDTA 2-Na) and 0.05% sodium azide (NaN3)) containing 0.5% normal rabbit serum. Anti-rat ghrelin [D1-D11] and anti-rat ghrelin [D13-D28] antisera were used at final dilutions of 1/3,000,000 and 1/20,000, respectively. After a 12-hour incubation at 4° C., 100 μl of ^125I-labeled ligand (20,000 cpm) was added for an additional 36-hour incubation. Then, 100 μl of anti-rabbit goat antibody was added. After incubation for 24 hours at 4° C., free and bound tracers were separated by centrifugation at 3,000 rpm for 30 min. Pellet radioactivity was quantified in a gamma counter (ARC-600, Aloka, Tokyo). All assays were performed in duplicate at 4° C.
as §1
Orally ingested triacylglycerols are intraluminally hydrolyzed and absorbed through the gastro-intestinal mucosa as free fatty acids or monoglycerides. Thus, ingested triacylglycerols may serve as a source of free fatty acids [D26]. To examine if ingested triacylglycerols are used for acyl-modification of ghrelin, mice were fed chow mixed with 5% (w/w) glyceryl trihexanoate (C6), trioctanoate (C8), tridecanoate (C10), and tripalmintate (C16). After two weeks, gastric peptides were extracted. Ghrelin concentration in the stomach of these mice and in that from mice fed standard laboratory chow (Control) (n=8) are shown. The content of acyl-modified and total ghrelins was measured by N- and C-RIA. […]

[5] = test system: anti-rat ghrelin [D1-D11] antiserum; test: Cross-reactivity of ghrelin N-RIA; assay type: binding, rabbit; details: for cross-reactivity of N-RIA: relative to n-octanoyl ghrelin
Procedure: as §2
The cross-reactivity of N-RIA to n-decanoyl ghrelin and that to n-hexanoyl ghrelin are 20% and 0.3%, respectively. Anti-rat ghrelin [D13-D28] antiserum equally recognized both des-acyl and all acylated forms of ghrelin peptide. In the following sections, the RIA system using the antiserum against the N-terminal fragment of rat ghrelin [D1-D11] is termed N-RIA, while the RIA system using antiserum against the C-terminal fragment [D13-D28] is termed C-RIA.

[6] = stomach extract, HPLC fraction, 0.2 mg stomach tissue equivalent
[7] = mice, 5% (w/w) in chow, 14 days, from 0.2 mg wet weight, C-RIA after HPLC, mean ± S.D.

Compound: CCCCCCC(=O)OCC(COC(=O)CCCCCC)OC(=O)CCCCCC [glyceryl triheptanoate]
- appearance of plasma peak f (retention time of n-heptanoyl ghrelin) (plasma ghrelin peptides): observed only in samples from glyceryl triheptanoate-treated mice
- appearance of peak b / d (n-heptanoyl ghrelin) immunoreactivity in stomach extracts ([1]; mice, HPLC, C-RIA / N-RIA): observed only in mice fed glyceryl triheptanoate
- concentration of peak b (n-heptanoyl ghrelin) determined by C-RIA [1, 6]: 466.3 fmol/tube
- concentration of peak d (n-heptanoyl ghrelin) measured by N-RIA [1, 6]: 74.9 fmol/tube

Compound: CCCCCCCC(=O)OCC(COC(=O)CCCCCCC)OC(=O)CCCCCCC [glyceryl trioctanoate]
- C6:0-ghrelin (n-hexanoyl ghrelin) concentration in the stomach [2, 7]: 12.4 ± 4.9
- C8:0-ghrelin (n-octanoyl ghrelin) concentration in the stomach [2, 7]: 774.0 ± 89.1^c)
- C10:0-ghrelin (n-decanoyl ghrelin) concentration in the stomach [2, 7]: 8.1 ± 3.1
- Des-acyl ghrelin concentration in the stomach [2, 7]: 236.6 ± 21.1
- C10:1-ghrelin (n-decenoyl ghrelin) concentration in the stomach ([2]; mice, 5% (w/w) in chow, 14 days, from 0.2 mg wet weight, C-RIA after HPLC, mean ± S.D., fraction holds unidentified ghrelin molecules too): 51.5 ± 13.2^a)
- stomach ghrelin modified by the acyl group corresponding to the ingested lipid ([2]; mice, HPLC peak, C-RIA): stimulated the production of n-octanoyl ghrelin
- molar ratio of n-octanoyl/total ghrelin ([2]; stomach of treated mice): over 60%
- expression level of gastric ghrelin mRNA (ghrelin mRNA): did not change
- stomach concentration of acyl-modified ghrelin vs normal chow ([3]; 14 days after ingestion, N-RIA): remained significantly higher
- onset of increase of acyl-modified ghrelin content in the stomach ([3]; mice, 5% w/w chow after 12-hour fasting, N-RIA): increased three hours after the ingestion
- time to maximal levels of n-octanoyl ghrelin in the stomach after starting ingestion ([3]; mice, 5% w/w chow continuously supplied): 24 h
- stomach content of total ghrelin ([3]; time course, C-RIA): no significant changes
- production of acyl-modified ghrelin in stomach tissue [4]: stimulated production

Compound: des-acyl ghrelin: ghrelin peptide in which the position-3 amino acid is not acylated (GSSFLSPEHQRVQQRKESKKPPAKLQPR; Ghrelin-28 non-acylated; UniProt Q9UBU3 24-51, looked up)
- recognition by anti-rat ghrelin [D1-D11] antiserum [5]: did not recognize

Compound: n-decanoyl ghrelin
- cross-reactivity of N-RIA [5]: 20%

Compound: n-hexanoyl ghrelin
- cross-reactivity of N-RIA [5]: 0.3%
